Assay results published in PMC10960472 (Veterinary Research, 2024).
Converted amounts (≈) assume the structure as drawn. Read-outs that look alike come from different tables or passages of the source. No end group written: not given here.

How the values were obtained:
E. coli RS218 [1] = tested on: E. coli RS218
E. coli RS218 [2] = assay: microbe, parasite or virus in culture; settings: Escherichia coli; for MBC: RS218, read-out: MBC, E. coli RS218, colony counting on LB agar from wells without visible growth; for MIC: RS218, read-out: MIC, E. coli RS218, MHB microdilution, 16-20 h at 37 °C, triplicate, lowest concentration inhibiting visual growth
E. coli PCN033 [3] = tested on: E. coli PCN033
E. coli PCN033 [4] = assay: microbe, parasite or virus in culture; settings: Escherichia coli; for MBC: PCN033, read-out: MBC, E. coli PCN033, colony counting on LB agar from wells without visible growth; for MIC: PCN033, read-out: MIC, E. coli PCN033, MHB microdilution, 16-20 h at 37 °C, triplicate, lowest concentration inhibiting visual growth
PCN033 and RS218 = assay: MIC and MBC, summary over both strains; type: cell-based; settings: Escherichia coli; for MBC: read-out: MBCs against PCN033 and RS218; for MIC: read-out: MICs against PCN033 and RS218
PCN033 [5] = assay: Time-kill curve assay; type: cell-based, Escherichia coli; settings: sub-MBC: PMAP-36 1/4 MBC, tetracycline 1/16 MBC, gentamicin 1/8 MBC, 37 °C
PCN033 [6] = assay: Mouse model of systemic infection with PCN033; type: in vivo; settings: C57BL/6 mice, 1 × 10^7 CFU PCN033 i.p., 30 mg/kg tetracycline i.p. 2 h after infection, n = 10/group
Method: Female C57BL/6 mice (6–8 weeks old) were obtained from Chongqing Lepitt Biotechnology Co., Ltd. This study was approved by the Institutional Animal Care and Use Committee (IACUC) of Southwest University, Chongqing, China (IACUC-20221022-18). […] Afterwards, different assays were performed as described below.
For the generation of survival curves, mice (n = 10/group) were monitored every 6 h until 72 h post-infection. Statistical analysis was conducted by the log rank (Mantel‒Cox) test in GraphPad Prism 8.0 software.
Mice (n = 5/group) were euthanized at 12 h post-infection. Then, organs (spleen, liver, and lung), blood and peritoneal lavage fluid (PLF) were collected and homogenized to determine the bacterial load via serial tenfold dilutions, plating on LB agar plates, and incubation at 37 °C overnight.
For histopathological observation, mice (n = 3/group) were euthanized at 12 h post-infection. Then, the lung tissues were fixed with 10% formaldehyde for over one week and embedded in paraffin for histological analysis.
For cytokine detection, the mice (n = 3/group) were euthanized at 12 h post-infection. Then, the expression of inflammatory cytokines (IL-1α, IL-1β, IL-6, IL-12 and TNF-α) in the lungs, liver, spleen, and PLF and the expression of chemokines (CXCL1 and CXCL2) in the PLF were determined using ELISA kits. […]

[7] = tested on: monocytes and macrophages in the PLF; assay: Flow cytometry of immune cells in peritoneal lavage fluid of infected mice; type: in vivo, mouse; settings: 12 h post-infection, flow cytometry F4/80 and Gr-1, n = 3/group
Method: Mice were infected and treated with the test compounds as described above. After 12 h of infection, PLF was collected with 2 mL of sterile PBS, and the cells were centrifuged at 1800 rpm for 3 min. Then, the cells were blocked with 1 mL of 2% bovine serum albumin (BSA) in PBS for 30 min. An anti-mouse CD16/32 antibody (1:50) (BioLegend, CA, USA) was used to block nonspecific antibody binding in 0.5% BSA buffer for 30 min at 4 °C. Next, the cells were stained with PE-conjugated anti-mouse F4/80 antibody (1:50) (BioLegend, CA, USA) and FITC-conjugated anti-mouse Ly-6G/Ly-6C (Gr-1) antibody (1:200) (BioLegend, CA, USA) in 0.5% BSA for 30 min at 4 °C. Afterwards, the cells were washed twice with 150 μL of 2% BSA and analysed using flow cytometry.

PCN033 [8] = type: cell-based, Escherichia coli
PCN033 [9] = assay: Scanning electron microscopy of treated bacteria; type: cell-based, Escherichia coli; settings: tetracycline 1/16 MBC, PMAP-36 1/4 MBC, alone or combined, MHB 37 °C
E. coli PCN033 [10] = assay: Checkerboard assay, fractional bactericidal concentration index; type: cell-based, Escherichia coli; settings: PMAP-36 with tetracycline, against multidrug-resistant porcine ExPEC
[11] = MHB microdilution, 16-20 h at 37 °C, triplicate, lowest concentration inhibiting visual growth
[12] = colony counting on LB agar from wells without visible growth

With `CC1(C)S[C@@H]2[C@H](NC(=O)[C@H](N)c3ccccc3)C(=O)N2[C@H]1C(=O)O` [Ampicillin, ampicillin] the “MIC, E. coli RS218” value (E. coli RS218 [1]; [11]) was 5 µM (≈ 1.75 µg/mL), the “MBC, E. coli RS218” value (E. coli RS218 [1]; [12]) was 10 µM (≈ 3.49 µg/mL) and the MBC (E. coli RS218 [2]) was 5 to 20 µM (≈ 1.75 to 6.99 µg/mL). For the same compound, the MIC (E. coli RS218 [2]) was 2.5 to 10 µM (≈ 0.874 to 3.49 µg/mL), the “MIC, E. coli PCN033” value (E. coli PCN033 [3]; [11]) was 20,480 μM and the “MIC, E. coli PCN033” value (E. coli PCN033 [3]; MHB microdilution, 16-20 h at 37 °C, triplicate, lowest concentration inhibiting visual growth, listed as ampicillin) was “greater than 160 μM”. The “MBC, E. coli PCN033” value (E. coli PCN033 [3]; [12]) was 40,960 μM and the “MBC, E. coli PCN033” value (E. coli PCN033 [3]; colony counting on LB agar from wells without visible growth, listed as ampicillin) was “greater than 1280 μM”.

`CO/N=C(\C(=O)N[C@@H]1C(=O)N2C(C(=O)O)=C(COC(C)=O)CS[C@H]12)c1csc(N)n1` [Cefotaxime, cefotaxime] gave an MBC (E. coli PCN033 [4]) of under 0.625 µM, an MIC (E. coli PCN033 [4]) of under 0.625 µM and an MBC (E. coli RS218 [2]) of under 0.625 µM. It also gave an MIC (E. coli RS218 [2]) of under 0.625 µM, an MBC (PCN033 and RS218) of under 0.625 µM and an MIC (PCN033 and RS218) of under 0.625 µM.

For `CNC(C)C1CCC(N)C(OC2C(N)CC(N)C(OC3OCC(C)(O)C(NC)C3O)C2O)O1` (stereo not shown) [Gentamicin, gentamicin], the “bactericidal activity within 120 min, agent alone” value (PCN033 [5]) was “did not show obvious bactericidal activity”, the MBC (E. coli PCN033 [4]) was over 1280 µM and the MIC (E. coli PCN033 [4]) was over 160 µM. For the same compound, the “MIC, E. coli RS218” value (E. coli RS218 [1]; [11]) was 2.5 µM (≈ 1.19 µg/mL), the “MBC, E. coli RS218” value (E. coli RS218 [1]; [12]) was 5 µM (≈ 2.39 µg/mL) and the MBC (E. coli RS218 [2]) was 5 to 20 µM (≈ 2.39 to 9.55 µg/mL). The MIC (E. coli RS218 [2]) was 2.5 to 10 µM (≈ 1.19 to 4.78 µg/mL), the “MIC, E. coli PCN033” value (E. coli PCN033 [3]; [11]) was 320 µM (≈ 153 µg/mL) and the “MBC, E. coli PCN033” value (E. coli PCN033 [3]; [12]) was 1280 µM (≈ 611 µg/mL).

In the case of `Cc1onc(-c2ccccc2)c1C(=O)N[C@@H]1C(=O)N2[C@@H]1SC(C)(C)[C@@H]2C(=O)O` [Oxacillin, oxacillin], the MBC (E. coli RS218 [2]) is reported as 1280 µM (≈ 514 µg/mL), the MIC (E. coli RS218 [2]) is reported as 320 µM (≈ 128 µg/mL) and the “MIC, E. coli PCN033” value (E. coli PCN033 [3]; [11]) is reported as 5120 µM (≈ 2060 µg/mL). The “MIC, E. coli PCN033” value (E. coli PCN033 [3]; MHB microdilution, 16-20 h at 37 °C, triplicate, lowest concentration inhibiting visual growth, listed as oxacillin) was “greater than 160 μM” and the “MBC, E. coli PCN033” value (E. coli PCN033 [3]; [12]) was 10,240 μM.

`[H]/N=C(/N)N[C@H]1[C@H](O)[C@@H](O)[C@H](O[C@@H]2O[C@@H](C)[C@](O)(C=O)[C@H]2O[C@@H]2O[C@@H](CO)[C@H](O)[C@@H](O)[C@@H]2NC)[C@@H](N/C(N)=N\[H])[C@@H]1O` [Streptomycin, streptomycin] showed an MIC (E. coli PCN033 [4]) of over 160 µM, an MBC (E. coli RS218 [2]) of over 41000 µM and an MIC (E. coli RS218 [2]) of 41000 µM (≈ 23800 µg/mL).

With `CN(C)[C@@H]1C(O)=C(C(N)=O)C(=O)[C@@]2(O)C(O)=C3C(=O)c4c(O)cccc4[C@@](C)(O)[C@H]3C[C@@H]12` [Tetracycline, tetracycline] the “time within which all treated mice died” value (PCN033 [6]) was at most 24 h, the MBC (E. coli PCN033 [4]) was 160 µM (≈ 71.1 µg/mL) and the MIC (E. coli PCN033 [4]) was 160 µM (≈ 71.1 µg/mL). For the same compound, the “number of monocytes and macrophages in the PLF” value [7] was “only slightly increased”, the MBC (E. coli RS218 [2]) was 5 µM (≈ 2.22 µg/mL) and the MIC (E. coli RS218 [2]) was 2.5 µM (≈ 1.11 µg/mL). For the same compound, the MBC (PCN033 and RS218) was 5 to 320 µM (≈ 2.22 to 142 µg/mL), the MIC (PCN033 and RS218) was 2.5 to 320 µM (≈ 1.11 to 142 µg/mL) and the “increase of the MIC of tetracycline, 10th generation” value (PCN033 [8]) was 1.5 fold. The “change of the MIC of tetracycline after 30 generations” value (PCN033 [8]; PCN033 grown at sub-MIC: tetracycline 1/4 MIC, PMAP-36 1/4 MIC, or 1/8 MIC + 1/8 MIC, normalised to first generation) was “threefold”, the “cell morphology under SEM” value (PCN033 [9]) was “slight cell shrinkage” and the “decrease of MBC when used in combination” value (E. coli PCN033 [10]) was 16 fold.

“GLLRKGGEKIGEKLKKIGQKIKNFFQKLVPQPEQ [CRAMP]” was tested, and the “MIC, E. coli RS218” value (E. coli RS218 [1]; [11]) was 5 µM, the “MBC, E. coli RS218” value (E. coli RS218 [1]; [12]) was 20 µM and the “MIC, E. coli PCN033” value (E. coli PCN033 [3]; [11]) was 10 µM. For the same compound, the “MBC, E. coli PCN033” value (E. coli PCN033 [3]; [12]) was 20 µM.

With “GRFRRLRKKTRKRLKKIGKVLKWIPPIVGSIPLGCG [PMAP-36, porcine myeloid antimicrobial peptide 36]” the “MBC, E. coli RS218” value (E. coli RS218 [1]; RS218) was 5 µM, the “MIC, E. coli RS218” value (E. coli RS218 [1]; RS218) was 2.5 µM and the “MBC, E. coli PCN033” value (E. coli PCN033 [3]; PCN033) was 10 µM. The “MIC, E. coli PCN033” value (E. coli PCN033 [3]; PCN033) was 2.5 µM.

“PIRNWWIRIWEWLNGIRKRLRQRSPFYVRGHLNVTSTPQP [CATH-B1]” was tested, and the “MBC, E. coli RS218” value (E. coli RS218 [1]; RS218) was over 40 µM, the “MIC, E. coli RS218” value (E. coli RS218 [1]; RS218) was over 40 µM and the “MBC, E. coli PCN033” value (E. coli PCN033 [3]; PCN033) was over 40 µM. For the same compound, the “MIC, E. coli PCN033” value (E. coli PCN033 [3]; PCN033) was over 40 µM.

In the case of RFGRFLRKIRRFRPKVTITIQGSARF [CATH-2], the “MBC, E. coli RS218” value (E. coli RS218 [1]; RS218) is reported as 10 µM, the “MIC, E. coli RS218” value (E. coli RS218 [1]; RS218) is reported as 5 µM and the “MBC, E. coli PCN033” value (E. coli PCN033 [3]; PCN033) is reported as 20 µM. For the same compound, the “MIC, E. coli PCN033” value (E. coli PCN033 [3]; PCN033) was 10 µM.

In the case of “RRRPRPPYLPRPRPPPFFPPRLPPRIPPGFPPRFPPRFP [PR-39]”, the “MBC, E. coli RS218” value (E. coli RS218 [1]; RS218) is reported as 5 µM, the “MIC, E. coli RS218” value (E. coli RS218 [1]; RS218) is reported as 2.5 µM and the “MBC, E. coli PCN033” value (E. coli PCN033 [3]; PCN033) is reported as 10 µM. The “MIC, E. coli PCN033” value (E. coli PCN033 [3]; PCN033) was 5 µM.

With RVKRFWPLVPVAINTVAAGINLYKAIRRK [CATH-3] the “MBC, E. coli RS218” value (E. coli RS218 [1]; RS218) was 10 µM, the “MIC, E. coli RS218” value (E. coli RS218 [1]; RS218) was 5 µM and the “MBC, E. coli PCN033” value (E. coli PCN033 [3]; PCN033) was 20 µM. The “MIC, E. coli PCN033” value (E. coli PCN033 [3]; PCN033) was 10 µM.
